Data as given in article PMC5653977 (EMBO Molecular Medicine, 2017).

What was measured:
NRG1-ERBB4 signaling = test: Nrg1-ERBB4-PIK3R1 split TEV co-culture compound screen of the NIH Clinical Collection; type: cell-based, human; conditions: compounds at 10 μM, 24 h; PC12 split TEV assay cells co-cultured with Nrg1-expressing PC12 cells; analysed with cellHTS2
[1] = biological target: ERBB2-NTEV-tevS-GV + ERBB3-CTEV (Homo sapiens, UniProt P04626+P21860); test: ERBB dimerization split TEV assay ERBB2/ERBB3; type: cell-based; conditions: 10 ng/ml EGFld
Text: Gateway recombination cloning (Life Technologies) was applied for generating plasmids. Each ORF cloned was PCR‐amplified using the Pwo proofreading DNA polymerase (Roche) and BP‐recombined into the pDONR/Zeo plasmid (Life Technologies) to yield an entry vector, which was control‐digested using BsrGI to release the insert, and sequence‐verified. The following human ORFs were cloned using cDNA image clones ordered from Source BioScience: ERBB4 transcript variant JM‐a/CYT‐1 (Accession: BC112199), PIK3R1 (BC094795), GRB2 transcript variant 1 (BC000631), SHC1 transcript variant 2 (BC014158), STAT5A (BC027036), and SRC transcription variant 1 (BC051270). For EGFR, ERBB2, and ERBB3, entry vectors were obtained from the human CCSB kinase collection available from Addgene (Johannessen et al, 2010). Entry vectors were LR‐recombined into split TEV destination vectors [either pcDNA_attR1‐ORF‐attR2‐NTEV‐tevS‐GV‐2xHA_DEST or pTag4C_attR1‐ORF‐attR2‐CTEV‐2xHA_DEST, plasmids were described in detail before (Wehr et al, 2006)] to yield expression vectors, which were control‐digested using BsrGI. The plasmids for Nrg1 type I β1a and rat Nrg1 type III β1a have been described before (Wehr et al, 2006).

Limk1 = test: Western blot of phospho-Limk1 in prefrontal cortex of spironolactone-treated mice; type: in vivo, mouse; conditions: Nrg1-tg mice, 50 mg/kg s.c. daily for 21 days, prefrontal cortex lysates
Description: For the generation of lysates, the isolated tissue was immediately placed into cooled (4°C) sucrose buffer (320 mM sucrose, 10 mM Tris–HCl, 1 mM NaHCO3, 1 mM MgCl2, supplemented with 10 mM NaF, 1 mM […], 1 mM ZnCl2, 4.5 mM Na4P20_7 as phosphatase inhibitors, and the complete protease inhibitor cocktail (Roche)), homogenized using an ultra‐turrax (IKA GmbH, Staufen, Germany), sonicated (3 pulses for 10 s), and denatured for 10 min at 70°C in LDS sample buffer.
Each blot was replicated two times.
(§1) Treatment was continued throughout the behavioral analysis period. To avoid injection‐induced stress prior to behavioral testing, mice were injected in the afternoon, after the entire cohort has completed the behavioral paradigm.

[2] = mouse, in vivo
Description: as §1

Chain of ERBB2-NTEV-tevS-GV + ERBB3-CTEV (P04626 23-1255): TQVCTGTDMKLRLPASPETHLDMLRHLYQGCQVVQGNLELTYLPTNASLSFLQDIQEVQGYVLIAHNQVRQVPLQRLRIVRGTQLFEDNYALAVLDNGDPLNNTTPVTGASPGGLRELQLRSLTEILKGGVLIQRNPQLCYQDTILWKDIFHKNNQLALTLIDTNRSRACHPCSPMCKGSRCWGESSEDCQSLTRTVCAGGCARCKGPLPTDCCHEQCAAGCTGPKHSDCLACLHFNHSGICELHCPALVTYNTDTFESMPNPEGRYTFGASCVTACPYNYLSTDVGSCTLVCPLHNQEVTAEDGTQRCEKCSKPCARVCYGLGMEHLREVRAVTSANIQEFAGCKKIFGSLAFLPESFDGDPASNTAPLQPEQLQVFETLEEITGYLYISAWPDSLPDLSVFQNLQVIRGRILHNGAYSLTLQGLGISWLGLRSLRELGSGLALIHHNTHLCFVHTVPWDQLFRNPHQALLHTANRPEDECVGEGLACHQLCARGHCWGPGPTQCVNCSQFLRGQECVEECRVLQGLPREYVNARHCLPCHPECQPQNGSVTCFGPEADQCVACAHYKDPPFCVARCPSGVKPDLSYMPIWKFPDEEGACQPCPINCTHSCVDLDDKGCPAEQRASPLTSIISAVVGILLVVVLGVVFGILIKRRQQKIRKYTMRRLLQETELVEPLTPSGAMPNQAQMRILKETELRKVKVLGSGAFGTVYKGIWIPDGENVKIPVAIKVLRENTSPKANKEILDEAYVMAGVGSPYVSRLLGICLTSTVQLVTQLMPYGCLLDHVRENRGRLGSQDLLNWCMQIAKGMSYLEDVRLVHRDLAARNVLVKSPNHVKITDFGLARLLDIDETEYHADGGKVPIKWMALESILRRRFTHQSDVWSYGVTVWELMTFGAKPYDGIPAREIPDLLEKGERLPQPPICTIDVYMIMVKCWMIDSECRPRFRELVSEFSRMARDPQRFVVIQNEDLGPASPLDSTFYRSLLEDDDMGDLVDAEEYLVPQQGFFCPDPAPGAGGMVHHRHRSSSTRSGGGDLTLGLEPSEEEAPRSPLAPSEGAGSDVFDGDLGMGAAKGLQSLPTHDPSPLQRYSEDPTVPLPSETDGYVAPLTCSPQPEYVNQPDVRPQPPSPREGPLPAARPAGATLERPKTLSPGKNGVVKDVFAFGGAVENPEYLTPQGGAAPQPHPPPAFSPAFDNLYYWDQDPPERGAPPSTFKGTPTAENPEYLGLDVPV
Chain of ERBB2-NTEV-tevS-GV + ERBB3-CTEV (P21860 20-1342): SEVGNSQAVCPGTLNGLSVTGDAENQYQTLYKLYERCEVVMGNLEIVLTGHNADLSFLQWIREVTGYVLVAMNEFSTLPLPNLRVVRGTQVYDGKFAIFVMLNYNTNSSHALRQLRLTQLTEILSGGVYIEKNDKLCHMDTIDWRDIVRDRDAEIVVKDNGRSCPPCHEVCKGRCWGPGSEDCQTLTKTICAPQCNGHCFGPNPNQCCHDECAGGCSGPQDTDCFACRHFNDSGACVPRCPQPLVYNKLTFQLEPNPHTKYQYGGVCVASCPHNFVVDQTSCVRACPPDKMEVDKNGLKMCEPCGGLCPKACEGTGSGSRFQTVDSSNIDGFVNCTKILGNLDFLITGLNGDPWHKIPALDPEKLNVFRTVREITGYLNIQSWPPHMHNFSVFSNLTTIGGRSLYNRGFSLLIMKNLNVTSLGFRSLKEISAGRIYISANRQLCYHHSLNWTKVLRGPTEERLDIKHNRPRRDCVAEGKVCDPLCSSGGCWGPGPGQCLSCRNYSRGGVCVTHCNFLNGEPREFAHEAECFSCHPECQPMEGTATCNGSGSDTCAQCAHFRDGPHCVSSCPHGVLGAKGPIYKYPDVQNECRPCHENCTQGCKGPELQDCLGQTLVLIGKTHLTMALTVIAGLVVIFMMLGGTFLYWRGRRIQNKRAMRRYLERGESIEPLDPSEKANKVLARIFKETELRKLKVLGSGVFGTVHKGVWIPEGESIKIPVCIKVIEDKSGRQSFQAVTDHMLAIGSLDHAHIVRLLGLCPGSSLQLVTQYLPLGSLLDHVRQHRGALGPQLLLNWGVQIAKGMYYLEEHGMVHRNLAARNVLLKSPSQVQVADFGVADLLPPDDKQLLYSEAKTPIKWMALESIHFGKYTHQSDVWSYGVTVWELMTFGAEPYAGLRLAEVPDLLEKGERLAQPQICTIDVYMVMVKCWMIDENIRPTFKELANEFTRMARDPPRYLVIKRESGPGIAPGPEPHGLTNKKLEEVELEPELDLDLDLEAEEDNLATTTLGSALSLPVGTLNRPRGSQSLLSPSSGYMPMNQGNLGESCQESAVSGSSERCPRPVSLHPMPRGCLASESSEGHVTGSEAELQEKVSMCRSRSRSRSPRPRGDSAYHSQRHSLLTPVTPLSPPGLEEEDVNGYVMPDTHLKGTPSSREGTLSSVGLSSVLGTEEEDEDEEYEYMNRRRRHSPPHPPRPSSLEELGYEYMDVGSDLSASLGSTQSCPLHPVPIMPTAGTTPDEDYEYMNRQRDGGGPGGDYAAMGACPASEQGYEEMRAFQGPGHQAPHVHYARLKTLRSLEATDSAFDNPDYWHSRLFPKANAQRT

**Q.** What does the source list for `CC(=O)S[C@@H]1CC2=CC(=O)CC[C@]2(C)[C@H]2CC[C@@]3(C)[C@@H](CC[C@@]34CCC(=O)O4)[C@H]12` [Spironolactone]?
**A.** Z-SCORE (NRG1-ERBB4 signaling): 9.25; IC50 [1]: 9.23 µM; phospho-Limk1 levels (Limk1): markedly upregulated; side effect in treated mice [2]: no major side effect
